Laboratory results as given in US6432983B1, “Benzothiophene compounds intermediates processes and methods of use” (Eli Lilly and Company, priority 1996, dated 2002).
Marks after values point to notes of the source that are not given here.

System: ovariectomized rats
Test: ovariectomized rat model of postmenopausal hyperlipidemia (uterine weight, uterine eosinophil peroxidase, serum cholesterol)
Type: in vivo
Parameters: Uterine Eosinophil (Vmax): unit not given here
Conditions: for Serum Cholest. % Dec: decrease versus ovariectomized controls
Description: Experimental models of postmenopausal hyperlipidemia are known in the art. Germane to this invention is the ovariectomized rat model which is detailed in U.S. Pat. No. 5,464,845.
Data presented in Table 1 show comparative results among ovariectomized rats, rats treated with 17-α-ethynyl estradiol(EE2), and rats treated with certain compounds of this invention. […] This uterine response to estrogen is well recognized in the art.
Not only did the compounds of the present invention reduce serum cholesterol compared to the ovariectomized animals, but the uterine weight was increased to lesser extent than those given EE2. Compared to estrogenic compounds known in the art, the benefit of serum cholesterol reduction while lessening the effect on uterine weight is unusual and desirable.
As expressed in the data below, estrogenicity also was assessed by evaluating the response of eosinophil infiltration into the uterus.
The data presented in Table 1 reflect the response per treatment group.

[1] = ovariectomized rats, dose 1.0 mg/kg
[2] = ovariectomized rats, dose 10.0 mg/kg

Compound | Serum Cholest. % Dec [1] | Serum Cholest. % Dec [2] | Uterine Eosinophil (Vmax) (rat, in vivo, 1 mg/kg) | Uterine Weight % Inc (rat, in vivo, 1 mg/kg) | Uterine Eosinophil (Vmax) (rat, in vivo, 10 mg/kg) | Uterine Weight % Inc (rat, in vivo, 10 mg/kg) | uterine weight (in words) (compared to the ovariectomized animals or to EE2) | serum cholesterol (in words) (compared to the ovariectomized animals, EE2 orally at 0.1 mg/kg/day) | Uterine Weight % Inc (ovariectomized rats, dose 0.1 mg/kg, % increase versus the ovariectomized controls) | Uterine Eosinophil (Vmax) (ovariectomized rats, dose 0.1 mg/kg, Eosinophil peroxidase, Vmaximum) | Serum Cholest. % Dec (ovariectomized rats, dose 0.1 mg/kg) | eosinophil infiltration into the uterus (in words) (stromal layer of the ovariectomized rat uteri)
O=C(c1ccc(OCCCN2CCCC2)cc1)c1c(-c2ccc(O)cc2)sc2cc(O)ccc12 [Example 15, [2-(4-Hydroxyphenyl)-6-hydroxybenzo[b]thien-3-yl][4-[3-(1-pyrrolidinyl)propyloxyl]phenyl]methanone] | 62.7* % | 64.0* % | 51.6* | 52.6* % | 137.3* | 58.2* % |  |  |  |  |  | 
O=C(c1ccc(OCCCCCCN2CCCC2)cc1)c1c(-c2ccc(O)cc2)sc2cc(O)ccc12 [Example 12, [2-(4-Hydroxyphenyl)-6-hydroxybenzo[b]thien-3-yl][4-[6-(1-pyrrolidinyl)hexyloxyl]phenyl]methanone] | 34.2* % | 74.0* % | 2.6 | −2.6% | 17.2* | 47.8* % |  |  |  |  |  | 
O=C(c1ccc(OCCCCCN2CCCC2)cc1)c1c(-c2ccc(O)cc2)sc2cc(O)ccc12 [Example 13, [2-(4-Hydroxyphenyl)-6-hydroxybenzo[b]thien-3-yl][4-[5-(1-pyrrolidinyl)pentyloxyl]phenyl]methanone] | 36.4* % | 52.9* % | 5.8 | 10.1% | 37.8* | 39.2* % |  |  |  |  |  | 
O=C(c1ccc(OCCCCN2CCCC2)cc1)c1c(-c2ccc(O)cc2)sc2cc(O)ccc12 [Example 14, [2-(4-Hydroxyphenyl)-6-hydroxybenzo[b]thien-3-yl][4-[4-(1-pyrrolidinyl)butyloxyl]phenyl]methanone] | 37.9* % | 65.7* % | 24.3* | 21.4* % | 66.5* | 62.0* % |  |  |  |  |  | 
O=C(c1ccc(OCCCCCCCN2CCCC2)cc1)c1c(-c2ccc(O)cc2)sc2cc(O)ccc12 [Example 11, [2-(4-Hydroxyphenyl)-6-hydroxybenzo[b]thien-3-yl][4-[7-(1-pyrrolidinyl)heptyloxyl]phenyl]methanone] | 32.4* % | 60.5* % | 5.9 | 9.3% | 59.2* | 64.0* % |  |  |  |  |  | 
O=C(c1ccc(OCCCCCCCCN2CCCC2)cc1)c1c(-c2ccc(O)cc2)sc2cc(O)ccc12 [Preparation C, [2-(4-Hydroxyphenyl)-6-hydroxybenzo[b]thien-3-yl][4-[8-(1-pyrrolidinyl)octyloxyl]phenyl]methanone] | 31.3* % | 72.8* % | 4.2 | 18.3* % | 40.3* | 69.3* % |  |  |  |  |  | 
C#C[C@]1(O)CC[C@H]2[C@@H]3CCc4cc(O)ccc4[C@H]3CC[C@@]21C [EE2, 17-α-ethynyl estradiol, reference compound] |  |  |  |  |  |  | substantially greater than the uterine weight of the ovariectomized animals | caused a decrease in serum cholesterol | 125.8* % | 111.2* | 88.1* % | substantial and expected increase in eosinophil infiltration
